Experiments:
FXR [1] = biological target: T1, FXR (Homo sapiens, UniProt Q96RI1); test: In Vitro FXR Assay (PGL3): luciferase reporter in transfected CV-1 cells; format: cell-based; conditions: CV-1 cells transfected with hFXR, hRXR, PGL3-ECRE*6-luc; 18 h incubation; luminescence
T1 construct: expressed in transfected cells; host or cells: CV-1 cells
T1 sequence (Q96RI1 1-486): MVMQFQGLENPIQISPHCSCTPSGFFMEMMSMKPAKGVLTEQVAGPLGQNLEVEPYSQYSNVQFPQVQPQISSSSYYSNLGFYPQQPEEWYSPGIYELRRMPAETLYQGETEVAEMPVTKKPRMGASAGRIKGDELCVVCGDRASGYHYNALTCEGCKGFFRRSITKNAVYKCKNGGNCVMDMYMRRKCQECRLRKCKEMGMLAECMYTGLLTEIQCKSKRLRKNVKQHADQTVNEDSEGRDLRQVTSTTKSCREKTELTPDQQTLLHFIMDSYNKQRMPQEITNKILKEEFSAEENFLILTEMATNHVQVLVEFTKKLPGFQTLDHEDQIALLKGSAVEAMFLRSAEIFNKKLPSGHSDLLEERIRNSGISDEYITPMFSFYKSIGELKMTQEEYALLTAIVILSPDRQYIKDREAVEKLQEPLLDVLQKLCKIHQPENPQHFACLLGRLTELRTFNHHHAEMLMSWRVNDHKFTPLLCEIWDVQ
T1 sequence (P19793 1-462 partner): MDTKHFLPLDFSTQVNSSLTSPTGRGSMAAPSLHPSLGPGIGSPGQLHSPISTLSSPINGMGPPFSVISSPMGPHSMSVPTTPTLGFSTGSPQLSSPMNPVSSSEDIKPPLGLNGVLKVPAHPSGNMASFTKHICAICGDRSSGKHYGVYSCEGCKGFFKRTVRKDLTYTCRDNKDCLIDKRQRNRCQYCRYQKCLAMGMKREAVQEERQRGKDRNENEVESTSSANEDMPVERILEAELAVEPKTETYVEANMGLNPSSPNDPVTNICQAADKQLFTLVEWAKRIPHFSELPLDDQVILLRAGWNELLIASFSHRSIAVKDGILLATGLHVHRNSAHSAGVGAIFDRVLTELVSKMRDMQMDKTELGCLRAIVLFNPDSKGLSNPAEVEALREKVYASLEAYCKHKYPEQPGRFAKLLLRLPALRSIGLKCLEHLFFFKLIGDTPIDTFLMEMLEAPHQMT
Summary of the method: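 CV-1 cells in charcoal-stripped FBS were transiently co-transfected with full-length human FXR, RXR, an ECRE×6-luciferase reporter, β-gal and YFP plasmids. Transfected cells were reseeded onto half-log compound dilutions and incubated 18 h. Luciferase luminescence was read after lysis, and EC50 was determined.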

FXR [2] = biological target: T1, FXR; test: In Vitro FXR Assay (TK): TK-ECRE-luc reporter in transfected CV-1 cells; format: cell-based; conditions: CV-1 cells transfected with hFXR, hRXR, 18 h incubation, luminescence
Summary of the method: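 Luciferase read-out from lysed CV-1 cells exposed 18 h to DMSO-diluted compounds. Cells had been transfected overnight with expression plasmids for hFXR and hRXR plus TK-ECRE-luc reporter and pCMX-YFP, grown in charcoal-stripped serum at 37 °C, 5% CO2.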

SMILES	Cmpd/Fex (ratio of the EC50 for the test compound relative to the EC50 of the Fexaramine control) (FXR [1])	EC50 (FXR [2])
COC(=O)/C=C/c1cccc(N(Cc2ccc(-c3ccc(N(C)C)cc3)c(C)c2)C(=O)C2CCCCC2)c1 [compound 53, (E)-Methyl 3-(3-(N-((4′-(dimethylamino)-2-methyl-[1,1′-biphenyl]-4-yl)methyl)cyclohexanecarboxamido)phenyl) acrylate]	+++ (‘+++’ means Cmpd/Fex < 10)	1 to 10 µM
COC(=O)/C=C/c1cccc(N(Cc2ccc(-c3ccc(N(C)C)cc3)cc2C)C(=O)C2CCCCC2)c1 [compound 54, (E)-Methyl 3-(3-(N-((4′-(dimethylamino)-3-methyl-[1,1′-biphenyl]-4-yl)methyl)cyclohexanecarboxamido)phenyl) acrylate]	+++ (‘+++’ means Cmpd/Fex < 10)	≤ 1 µM
COC(=O)/C=C/c1cccc(N(Cc2ccc(-c3cccc(O)c3)cc2)C(=O)C2CCCCC2)c1 [compound 55, (E)-Methyl 3-(3-(N-((3′-hydroxy-[1,1′-biphenyl]-4-yl)methyl)cyclohexanecarboxamido)phenyl) acrylate]	+ (‘+’ means Cmpd/Fex > 100)	> 10 µM
COC(=O)/C=C/c1cccc(N(Cc2ccc(-c3ccccc3O)cc2)C(=O)C2CCCCC2)c1 [compound 56, (E)-Methyl 3-(3-(N-((2′-hydroxy-[1,1′-biphenyl]-4-yl)methyl)cyclohexanecarboxamido)phenyl) acrylate]	++ (‘++’ means Cmpd/Fex > 10 & < 100)	1 to 10 µM
COC(=O)/C=C/c1cccc(N(Cc2ccc(-c3ccc(O)cc3)cc2)C(=O)C2CCCCC2)c1 [compound 57, (E)-Methyl 3-(3-(N-((4′-hydroxy-[1,1′-biphenyl]-4-yl)methyl)cyclohexanecarboxamido)phenyl) acrylate]	+ (‘+’ means Cmpd/Fex > 100)	> 10 µM
COC(=O)/C=C/c1cccc(N(Cc2ccc(-c3ccc(C)c(OC)c3)cc2)C(=O)C2CCCCC2)c1 [compound 58, (E)-Methyl 3-(3-(N-((3′-methoxy-4′-methyl-[1,1′-biphenyl]-4-yl)methyl)cyclohexanecarboxamido)phenyl) acrylate]	+++ (‘+++’ means Cmpd/Fex < 10)	1 to 10 µM
COC(=O)/C=C/c1cccc(N(Cc2ccc(-c3c(F)cccc3F)cc2)C(=O)C2CCCCC2)c1 [compound 59, (E)-Methyl 3-(3-(N-((2′,6′-difluoro-[1,1′-biphenyl]-4-yl)methyl)cyclohexanecarboxamido)phenyl) acrylate]	+ (‘+’ means Cmpd/Fex > 100)	1 to 10 µM
COC(=O)/C=C/c1cccc(N(Cc2ccc(-c3ccc(N(C)C(=O)OC(C)(C)C)cc3)cc2)C(=O)C2CCCCC2)c1 [compound 60, (E)-Methyl 3-(3-(N-((4′-((tert-butoxycarbonyl)(methyl)amino)-[1,1′-biphenyl]-4-yl)methyl)cyclohexanecarboxamido)phenyl) acrylate]	+ (‘+’ means Cmpd/Fex > 100)	> 10 µM
CNc1ccc(-c2ccc(CN(C(=O)C3CCCCC3)c3cccc(/C=C/C(=O)OC)c3)cc2)cc1 [compound 61, (E)-Methyl 3-(3-(N-((4′-(methylamino)-[1,1′-biphenyl]-4-yl)methyl)cyclohexanecarboxamido)phenyl) acrylate]	+++ (‘+++’ means Cmpd/Fex < 10)	1 to 10 µM
COC(=O)/C=C/c1cccc(N(Cc2ccc(-c3ccc4c(ccn4C)c3)cc2)C(=O)C2CCCCC2)c1 [compound 62, (E)-Methyl 3-(3-(N-(4-(1-methyl-1H-indol-5-yl)benzyl)cyclohexanecarboxamido)phenyl) acrylate]	+++ (‘+++’ means Cmpd/Fex < 10)	≤ 1 µM
COC(=O)/C(C)=C/c1cccc(N(Cc2ccc(-c3ccc(N(C)C)cc3)cc2)C(=O)C2CCCCC2)c1 [compound 63, (E)-Methyl 3-(3-(N-((4′-(dimethylamino)-[1,1′-biphenyl]-4-yl)methyl)cyclohexanecarboxamido)phenyl)-2-methylacrylate]	+++ (‘+++’ means Cmpd/Fex < 10)	1 to 10 µM
COC(=O)/C=C/c1cccc(N(Cc2ccc(-c3ccc(OC)c(C#N)c3)cc2)C(=O)C2CCCCC2)c1 [compound 64, (E)-Methyl 3-(3-(N-((3′-cyano-4′-methoxy-[1,1′-biphenyl]-4-yl)methyl)cyclohexanecarboxamido)phenyl) acrylate]	+++ (‘+++’ means Cmpd/Fex < 10)	≤ 1 µM
COC(=O)/C=C/c1cccc(N(Cc2ccc(-c3ccccn3)cc2)C(=O)C2CCCCC2)c1 [compound 65, (E)-Methyl 3-(3-(N-(4-(pyridin-2-yl)benzyl)cyclohexanecarboxamido)phenyl) acrylate]	+ (‘+’ means Cmpd/Fex > 100)	1 to 10 µM
COC(=O)/C=C/c1cccc(N(Cc2ccc(-c3ccccc3C#N)cc2)C(=O)C2CCCCC2)c1 [compound 66, (E)-Methyl 3-(3-(N-((2′-cyano-[1,1′-biphenyl]-4-yl)methyl)cyclohexanecarboxamido)phenyl) acrylate]	+ (‘+’ means Cmpd/Fex > 100)	1 to 10 µM
COC(=O)/C=C/c1cccc(N(Cc2ccc(-c3nccs3)cc2)C(=O)C2CCCCC2)c1 [compound 67, (E)-Methyl 3-(3-(N-(4-(thiazol-2-yl)benzyl)cyclohexanecarboxamido)phenyl) acrylate]	+ (‘+’ means Cmpd/Fex > 100)	1 to 10 µM
COC(=O)/C=C/c1cccc(N(Cc2ccc(-c3cscn3)cc2)C(=O)C2CCCCC2)c1 [compound 68, (E)-Methyl 3-(3-(N-(4-(thiazol-4-yl)benzyl)cyclohexanecarboxamido)phenyl) acrylate]	+ (‘+’ means Cmpd/Fex > 100)	1 to 10 µM
COC(=O)/C=C/c1cccc(N(Cc2ccc(-c3cncs3)cc2)C(=O)C2CCCCC2)c1 [compound 69, (E)-Methyl 3-(3-(N-(4-(thiazol-5-yl)benzyl)cyclohexanecarboxamido)phenyl) acrylate]	+ (‘+’ means Cmpd/Fex > 100)	1 to 10 µM
COC(=O)/C=C/c1cccc(N(Cc2ccc(-c3ccc(C(C)C)cc3)cc2)C(=O)C2CCCCC2)c1 [compound 70, (E)-Methyl 3-(3-(N-((4′-isopropyl-[1,1′-biphenyl]-4-yl)methyl)cyclohexanecarboxamido)phenyl) acrylate]	+++ (‘+++’ means Cmpd/Fex < 10)	1 to 10 µM
C=C(C)c1ccc(-c2ccc(CN(C(=O)C3CCCCC3)c3cccc(/C=C/C(=O)OC)c3)cc2)cc1 [compound 71, (E)-Methyl 3-(3-(N-((4′-(prop-1-en-2-yl)-[1,1′-biphenyl]-4-yl)methyl)cyclohexanecarboxamido)phenyl) acrylate]	+++ (‘+++’ means Cmpd/Fex < 10)	1 to 10 µM
COC(=O)/C=C/c1cccc(N(Cc2ccc(-c3ccc(N(C)C)c(C#N)c3)cc2)C(=O)C2CCCCC2)c1 [compound 72, (E)-Methyl 3-(3-(N-((3′-cyano-4′-(dimethylamino)-[1,1′-biphenyl]-4-yl)methyl)cyclohexanecarboxamido)phenyl) acrylate]	+++ (‘+++’ means Cmpd/Fex < 10)	≤ 1 µM
COC(=O)/C=C/c1cccc(N(Cc2ccc(-c3ccc(N(C)C)c(F)c3)cc2)C(=O)C2CCCCC2)c1 [compound 73, (E)-Methyl 3-(3-(N-((4′-(dimethylamino)-3′-fluoro-[1,1′-biphenyl]-4-yl)methyl)cyclohexanecarboxamido)phenyl) acrylate]	+++ (‘+++’ means Cmpd/Fex < 10)	≤ 1 µM
